In US9605047B2, “Compositions and methods for treating hypertension” (The Brigham and Women's Hospital, Inc., priority 2012, dated 2017):

Experiments:
[1] = target: T1, ETB cysteinyl thiols (region containing Cys405) (Homo sapiens, UniProt P24530); test: Western analysis to detect ETB disulfide bond formation in HPAECs; format: cell-based; conditions: aldosterone 10^−7 mol/L 24 h or H2O2 200 μmol/L 20 min
T1 construct: endogenous in cells; host or cells: HPAECs (Lonza)
T1 sequence (P24530 27-442): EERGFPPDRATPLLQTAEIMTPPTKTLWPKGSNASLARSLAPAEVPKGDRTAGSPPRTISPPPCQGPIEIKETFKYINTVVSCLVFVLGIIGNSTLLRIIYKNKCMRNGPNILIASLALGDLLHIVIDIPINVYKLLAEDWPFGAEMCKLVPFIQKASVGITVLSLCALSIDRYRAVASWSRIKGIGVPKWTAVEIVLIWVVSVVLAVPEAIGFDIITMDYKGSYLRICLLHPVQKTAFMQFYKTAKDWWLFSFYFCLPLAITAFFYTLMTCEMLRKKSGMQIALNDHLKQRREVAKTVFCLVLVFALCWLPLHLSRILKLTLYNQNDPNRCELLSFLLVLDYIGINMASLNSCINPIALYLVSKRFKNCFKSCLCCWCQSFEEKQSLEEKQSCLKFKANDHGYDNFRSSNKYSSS
Experimental: Western analysis to detect ETB disfulfide bond formation. Western analysis to detect ETB disulfide bond formation was performed as described previously.^7 Briefly, protein extracts from cells were lysed in alkylating buffer containing 0.1 M Tris-HCL, pH 6.8, 1% SDS, 100 mM iodoacetamide, and 100 mM N-ethylmaleimide, and sonicated on ice for 5 min followed by a 30-min incubation at 25° C. Alkylated proteins were then precipitated with acetone. Proteins were resuspended in 50 μl of 0.1 M Tris-HCl, pH 7.4, 1% SDS; and disulfides were reduced with 5 mM tris(2-carboxyethyl)phosphine hydrochloride (TCEP). Following a 20-min incubation at 25° C., TCEP was removed with a Micro Bio-Spin™ column 6 (Bio-Rad), and 1% SDS was added to the eluant. The cysteines previously participating in a disulfide bond, now reduced, were labeled with 1 mM polyethylene glycol-conjugated maleimide (molecular mass 10 kDa) (Fluka). After a 1-h incubation at 25° C., proteins were precipitated with acetone, resuspended in 50 μl of non-reducing SDS electrophoresis buffer, and boiled for 10 min. Protein samples were then size-fractionated electrophoretically using SDS-PAGE, and transferred to a polyvinylidene fluoride membrane. […]

Sprague-Dawley rats = test: Monocrotaline (MCT) induction of PAH versus vehicle control; format: in vivo, rat
Experimental: (§1) Animal model of PAH. Male Sprague-Dawley rats (age 12-14 weeks; Charles River Laboratories) were handled in accordance with US National Institutes of Health guidelines, and all procedures were approved by the local committee at Brigham and Women's Hospital, Harvard Medical School. All surgeries were performed under ketamine/xylazine anesthesia. For the monocrotaline (MCT) model of PAH, rats were fed standard chow and treated with a 0.5 ml intraperitoneal injection of MCT (50 mg/ml) (Sigma-Aldrich) or 0.9% saline as control. Rats were randomized to spironolactone (25 mg/kg/d) (Henry Schein) or vehicle added to the drinking water. For the prevention study, treatment with spironolactone began immediately following administration of MCT and continued for 23-25 days until hemodynamic and tissue analyses were performed. For the reversal study, a second experiment was performed in which rats were randomized to spironolactone or vehicle that was initiated 14 days following the administration of MCT and continued until hemodynamic and tissue analyses were performed 10 days later.
(§2) Aldosterone and ET-1 levels. […] In selected experiments, cells were pre-treated for 6 h with BQ-788 (1.5 μM) (Sigma-Aldrich) to inhibit the ETB receptor. Aldosterone levels were measured in the medium of cells grown in phenol-free EGM-2 medium supplemented with charcoal-stripped serum, by enzyme immunoassay according to the manufacturer's instructions (Cayman). Results were standardized to cell protein concentration. Levels of aldosterone and ET-1 from plasma and whole lung tissue were measured by enzyme immunoassay according to the manufacturer's instructions (Cayman).
Echocardiography. Transthoracic two-dimensional, M-mode, and Doppler imaging were performed in rats using a Vevo 2010 ultrasonographic system with a 15-MHz transducer. M-mode and Doppler tracings were acquired at a sweep speed of 200 mm/s following optimization of endocardial visualization and spectral display of Doppler profiles as described previously.^3 M-mode measurements of the right ventricular free-wall thickness were measured in the parasternal short-axis view just below the levels of the aortic valve, as described previously and in accordance to recommendations on M-mode measurement of the RV by the American Society of Echocardiography.^4 All studies were performed by a cardiologist and experienced sonographer who was blinded to the treatment group and was responsible for image analysis.
(§3) Right heart catheterization. An incision was made in the anterior triangle of the right neck, and a dissection was performed to expose the right internal jugular vein. A 0.04×0.023 in.-sized polyvinylchloridine catheter with a curved end was flushed with heparinized saline and connected to a Grass pressure transducer and Grass model 79 polygraph. A 4.0-proline suture was used to achieve hemostasis at the distal end of the jugular vein prior to insertion of the catheter. The tube was advanced and RV systolic pressure was recorded, which was assumed to be equal to PASP in the setting of a normal pulmonic valve.^3 All right heart catheterizations were performed within 10 min of echocardiography and both procedures were completed within 30 min.

[2] = test system: rats with SU-5416/hypoxia-induced PAH; test: SU-5416/hypoxia-induced PAH, prevention study with eplerenone; format: in vivo, rat; conditions: 21 days
Experimental: (§4) Sections were stained with a Gomori's Trichrome Staining Kit according to the manufacturer's instruction (Fischer Scientific). Image J™ software (NIH) was used to measure the per cent perivascular collagen deposition of muscularized arterioles with a diameter of 20-50 μm by subtracting the area of the lesser curvature from the greater curvature and dividing by the lesser curvature×100. Collagen was also assessed in tissue sections using Picrosirius Red Stain Kit according to the manufacturer's instruction (Polysciences). Lung sections were visualized under polarized light using an Olympus BX51™ microscope and images were acquired by the Picture Taker™ software package.
as §3
(§5) Left heart catheterization and hemodynamics. Following completion of the right heart catheterization, a deep neck dissection was performed to identify the right carotid artery. Without disrupting the carotid sinus or vagus nerve, a cross-clamp was applied to the proximal and distal aspects of the carotid artery. A high fidelity Millar catheter (Millar Instruments, Inc.) was inserted into the carotid artery, the distal clamp was released, and the catheter was advanced past the aortic arch to record central aortic blood pressure. The catheter was then advanced across the aortic valve and left ventricular end-diastolic pressure (LVEDP) were recorded. Cardiac index (CI) was derived from pressure-volume loop analysis as described previously.^5 The pulmonary vascular resistance index was calculated as [(mean pulmonary artery pressure-LVEDP)/CI)] and systemic vascular resistance index was calculated as [(mean arterial pressure-mean right atrial pressure)/CI].

HPAECs [3] = test: Aldosterone levels in HPAEC culture medium by enzyme immunoassay; format: cell-based, human; conditions: pioglitazone 50 μM, 24 h
[4] = test system: Sprague-Dawley rats with MCT-induced PAH; test: MCT model of PAH, prevention study (spironolactone started at time of MCT injection); format: in vivo, rat
Experimental: as §1, §2
NO. metabolites. Nitrite (NO2^−) and nitrate (NO3^−) were measured in cell culture medium containing 2% fetal bovine serum and L-arginine (1 mmol/l) (Sigma-Aldrich) by 1(H)-naphthotriazole fluorescence (Cayman) as previously reported.^1 To measure NO2^− levels in whole lung tissue, lung specimens were harvested from rats and snap frozen in liquid nitrogen. Samples were thawed, homogenized in PBS (pH 7.4), and centrifuged at 14,000×g at 4° C. for 20 min. The supernatant was ultrafiltered using a 30 kDa molecular weight filter (Millpore), and the eluant was used to measure NO2^− levels according to manufacturer's instructions (Cayman).
Lung tissue histology. Rat lung vessels were perfused with saline through the pulmonary artery and inflated with 10% phosphate-buffered formalin at a pressure of 20 cm H2O through the trachea as described previously.^2 After fixation for 24 h at 4° C., the lung tissue was processed and embedded in paraffin using a Hypercenter™ XP System and Embedding Center (Shandon, Pittsburg, Pa.). The paraffin-embedded lung tissue was cut into 5-μm sections. Hematoxylin and eosin staining was performed according to methods published previously.^3 The 3,3′-diaminobenzidine substrate method was used for smooth muscle α-actin immunohistochemical staining. The number of muscularized arteries with a diameter of 20-50 μm located distal to terminal bronchioles were counted in 20 consecutive fields (100×) per section,^2 and the cross-sectional area was assessed using Image J™ software (NIH).
as §4
Echocardiography. […]

[5] = test system: ETB-dependent NO. generation in HPAECs; test: NO. metabolites (NO2−, NO3−) in ET-1-stimulated HPAECs; format: cell-based, human
Experimental: Cell culture and treatments. Human pulmonary artery endothelial cells (HPAECs) (Lonza) (male donors) were grown to confluence using phenol-free EGM-2 medium supplemented with 5% fetal bovine serum at 37° C., 5% CO2. Cells were passaged twice-weekly using 0.5% trypsin/EDTA, and experiments were performed on cells from passages 4-10. Aldosterone (Steraloids) and ET-1 (1-100 nM) (Sigma-Aldrich) were dissolved in dimethylsufloxide (10 nmol/L) and deoxygenated water, respectively, which served as vehicle controls. Cells were treated with aldosterone (10^−−10^−7 mol/L) for 24 h and in selected experiments co-incubated with the mineralocorticoid receptor inhibitor spironolactone (10 μM/l) (Sigma-Aldrich).

[6] = test system: Sprague-Dawley rats with MCT-induced PAH; test: MCT model of PAH, reversal study (spironolactone started 14 days after MCT); format: in vivo, rat
Experimental: as §1, §4, §3, §5

HPAECs [7] = test: Amplex Red assay of hydrogen peroxide levels in HPAECs; format: cell-based, human; conditions: aldosterone-treated HPAECs coincubated with spironolactone (10 μM), 24 h; n=3
Experimental: Human pulmonary artery endothelial cells (HPAECs) (Lonza) (male donors) were grown to confluence using phenol-free EGM-2 medium supplemented with 5% fetal bovine serum at 37° C., 5% CO2. Cells were passaged twice-weekly using 0.5% trypsin/EDTA, and experiments were performed on cells from passages 4-10. Aldosterone (Steraloids) and ET-1 (1-100 nM) (Sigma-Aldrich) were dissolved in dimethylsufloxide (10 nmol/L) and deoxygenated water, respectively, which served as vehicle controls. Cells were treated with aldosterone (10^−−10^−7 mol/L) for 24 h and in selected experiments co-incubated with the mineralocorticoid receptor inhibitor spironolactone (10 μM/l) (Sigma-Aldrich).

[8] = rats with MCT-induced PAH vs vehicle
[9] = rats with MCT-induced PAH vs vehicle, 25 days
[10] = spironolactone 25 mg/kg/d in MCT-PAH rats
[11] = spironolactone 25 mg/kg/d from day 14

OO [H2O2, hydrogen peroxide]
ETB disulfide bond formation (bands at 70 kDa and 90 kDa) [1]: de novo formation of one or two disulfide bonds

C[C@H]1C(=O)O[C@@H]2CCN3CC=C(COC(=O)[C@](C)(O)[C@]1(C)O)[C@H]23 [MCT, monocrotaline]
increase in plasma ET-1 levels (Sprague-Dawley rats; MCT rat model of PAH): 3 fold | right ventricular (RV) free-wall thickness (Sprague-Dawley rats; MCT-treated rats vs vehicle control 0.58±0.05, n=6): 1.1±0.05 mm | pulmonary artery systolic pressure (PASP) (Sprague-Dawley rats; MCT-treated rats vs vehicle control 28.3±2.7, right heart catheterization, n=6): 89.3±5.3 mm Hg | pulmonary artery (PA) flow acceleration time (PAAT) (Sprague-Dawley rats; MCT-treated rats vs vehicle control 35.4±2.6, echocardiography, n=6): 14.1 ± 1.2 ms | increase in aldosterone levels in lung tissue (Sprague-Dawley rats; [8]): 172% | increase in aldosterone levels in plasma (Sprague-Dawley rats; [8]): 406% | increase in ET-1 levels in lung homogenates (Sprague-Dawley rats; [9]): 174% | increase in ET-1 levels in plasma (Sprague-Dawley rats; [9]): 286%

COC(=O)[C@@H]1CC2=CC(=O)CC[C@]2(C)[C@@]23O[C@@H]2C[C@@]2(C)[C@@H](CC[C@@]24CCC(=O)O4)[C@H]13 [eplerenone]
decrease in perivascular collagen ([2]; eplerenone 0.6 mg/1 gm standard chow, n=5): 67% | CI ([2]; eplerenone in chow): without significantly influencing | LVEDP ([2]; eplerenone in chow): without significantly influencing | MAP ([2]; eplerenone in chow): without significantly influencing | SVRi ([2]; eplerenone in chow): without significantly influencing | body weight ([2]; eplerenone in chow): without significantly influencing | heart rate ([2]; eplerenone in chow): without significantly influencing | PVRi ([2]; eplerenone in chow, vs SU-5416/hypoxia 64.6±21.4, p=0.18, n=3-4): 43.9±8.7 mm Hg*min*gm/ml | PASP ([2]; eplerenone in chow, vs SU-5416/hypoxia 80.5±4.9, p=0.048, n=5): 61.5±6.5 mm Hg

CCc1ccc(CCOc2ccc(CC3SC(=O)NC3=O)cc2)nc1 (stereo not drawn) [pioglitazone]
increase in aldosterone levels compared to V (HPAECs [3]): 365%

CC(=O)S[C@@H]1CC2=CC(=O)CC[C@]2(C)[C@H]2CC[C@@]3(C)[C@@H](CC[C@@]34CCC(=O)O4)[C@H]12 [spironolactone]
body weight [4, 10]: without significantly decreasing plasma ET-1 levels or influencing | left ventricular end-diastolic pressure (LVEDP) [4, 10]: without significantly decreasing plasma ET-1 levels or influencing | mean arterial pressure (MAP) [4, 10]: without significantly decreasing plasma ET-1 levels or influencing | plasma ET-1 levels [4, 10]: without significantly decreasing | PASP ([4]; spironolactone 25 mg/kg/d in drinking water, 23-25 days, vs V-treated PAH 89.3±5.2, n=6): 69.5±5.4 mm Hg | decrease in perivascular collagen deposition (Gomori's trichrome) ([4]; spironolactone 25 mg/kg/d vs V-treated rats with PAH, n=4): 77% | RV weight ([4]; spironolactone 25 mg/kg/d, vs V-treated PAH 0.43±0.07, p=0.32, n=5): 0.35±0.04 RV weight/LV septum weight | RV free-wall thickness ([4]; spironolactone 25 mg/kg/d, vs V-treated PAH 1.07±0.05, n=6): 0.86±0.03 mm | PAAT ([4]; spironolactone 25 mg/kg/d, vs V-treated PAH 14.1±1.2, n=6): 22.3 ± 2.2 ms | cross-sectional luminal area of vessels ([4]; spironolactone 25 mg/kg/d, vs V-treated PAH 14.3±0.7, n=5): 35.4±1.9 % cross sectional area | number of α-actin-stained muscularized distal pulmonary arterioles ([4]; spironolactone 25 mg/kg/d, vs V-treated PAH 77.7±6.3, n=5): 59.7±0.4 muscularized pulmonary arterioles/20 high powered fields | nitrite (NO2^−) in lung tissue specimens ([4]; spironolactone 25 mg/kg/d, vs V-treated PAH 506±86, n=4): 759±55 μM/μg protein | NO2^− levels in aldosterone-treated, ET-1-stimulated cells ([5]; coincubation with spironolactone 10 μM, HPAECs): restored | increase in NOx levels ([5]; spironolactone coincubation in aldosterone-treated cells stimulated with ET-1, n=3): 87% | LVEDP [6, 11]: without changes | MAP [6, 11]: without changes | cardiac index (CI) [6, 11]: without changes | heart rate [6, 11]: without changes | indexed systemic vascular resistance (SVRi) [6, 11]: without changes | indexed pulmonary vascular resistance (PVRi) ([6]; spironolactone 25 mg/kg/d from day 14, vs V-treated PAH 35.9±3.2, n=4): 21.5±3.2 mm Hg*min*g/ml | PASP ([6]; spironolactone 25 mg/kg/d from day 14, vs V-treated PAH 60.3±5.2, n=6): 39.5±4.1 mm Hg | decrease in levels of perivascular collagen ([6]; spironolactone 25 mg/kg/d from day 14 for 10 days vs V-treated PAH, n=6): 71% | abrogation of aldosterone-induced H2O2 accumulation (HPAECs [7]): 56%
